This is an account of results in PubChem BioAssay AID1259411 (Chemical Carcinogenesis Research Information System (CCRIS), 2018).

The test system of this data set is rodent carcinogenicity bioassays, tumor incidence. In words: CCRIS carcinogenicity studies. The essentials:
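Archive of carcinogenicity, mutagenicity, tumor promotion and tumor inhibition results drawn from journals, NCI reports and other sources, expert-reviewed; covers 1985-2011 and is no longer updated.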

Molecules are shown by their SMILES. Active and inactive are the calls of the source. How the calls were made is not given here.

In the case of `[CH3][Hg][Cl]`, the carcinogen call (Species: MOUSE, Strain/Sex: B6C3F1/FEMALE, Route: ORAL, Dose: 0, 0.4, 2, 10 PPM IN DIET FOR 104 WK (STUDY DURATION: 104 WK), Dose: 0, 0.4, 2, 10 PPM IN DIET FOR 104 WK (STUDY DURATION: 104 WK)) was “inactive; negative”; the carcinogen call (Species: MOUSE, Strain/Sex: B6C3F1/MALE, Route: ORAL, Dose: 0, 0.4, 2, 10 PPM IN DIET FOR 104 WK (STUDY DURATION: 104 WK), Dose: 0, 0.4, 2, 10 PPM IN DIET FOR 104 WK (STUDY DURATION: 104 WK), Tumor Site: Type of Lesion: KIDNEY: CARCINOMA, ADENOMA) is “active; positive”; the carcinogen call (Species: MOUSE, Strain/Sex: ICR/FEMALE, Route: ORAL, Dose: 0, 0.4, 2, 10 PPM IN DIET FOR 104 WK (STUDY DURATION: 104 WK), Dose: 0, 0.4, 2, 10 PPM IN DIET FOR 104 WK (STUDY DURATION: 104 WK)) is “inactive; negative”; the carcinogen call (Species: MOUSE, Strain/Sex: ICR/FEMALE, Route: ORAL, Dose: 0, 10 PPM IN BASAL DIET ADMINISTERED TO SPAYED MICE FOR 80 WK (STUDY DURATION: 80 WK)) was “inactive; negative”; the carcinogen call (Species: MOUSE, Strain/Sex: ICR/FEMALE, Route: ORAL, Dose: 0, 10 PPM IN BASAL DIET FOR 80 WK (STUDY DURATION: 80 WK)) was “inactive; negative”; the carcinogen call (Species: MOUSE, Strain/Sex: ICR/FEMALE, Route: ORAL, Dose: 0, 15 PPM IN DIET FOR 78 WK (STUDY DURATION: 78 WK)) is “inactive; negative”. In addition, the carcinogen call reads like this: (Species: MOUSE, Strain/Sex: ICR/MALE, Route: ORAL, Dose: 0, 0.4, 2, 10 PPM IN DIET FOR 104 WK (STUDY DURATION: 104 WK), Dose: 0, 0.4, 2, 10 PPM IN DIET FOR 104 WK (STUDY DURATION: 104 WK), Tumor Site: Type of Lesion: KIDNEY: ADENOCARCINOMA) “active; positive”; (Species: MOUSE, Strain/Sex: ICR/MALE, Route: ORAL, Dose: 0, 10 PPM IN BASAL DIET ADMINISTERED TO CASTRATED MICE FOR 80 WK (STUDY DURATION: 80 WK)) “inactive; negative”; (Species: MOUSE, Strain/Sex: ICR/MALE, Route: ORAL, Dose: 0, 10 PPM IN BASAL DIET FOR 80 WK (STUDY DURATION: 80 WK), Tumor Site: Type of Lesion: KIDNEY: ADENOCARCINOMA) “active; positive”; (Species: MOUSE, Strain/Sex: ICR/MALE, Route: ORAL, Dose: 0, 15 PPM IN DIET FOR 78 WK (STUDY DURATION: 78 WK), Tumor Site: Type of Lesion: KIDNEY: ADENOCARCINOMA, ADENOMA) “active; positive”; (Species: RAT, Strain/Sex: SPRAGUE-DAWLEY/FEMALE, Route: ORAL, Dose: 0, 0.4, 2, 10 PPM IN DIET FOR 130 WK (STUDY DURATION: 130 WK), Dose: 0, 0.4, 2, 10 PPM IN DIET FOR 130 WK (STUDY DURATION: 130 WK)) “inactive; negative”; (Species: RAT, Strain/Sex: SPRAGUE-DAWLEY/MALE, Route: ORAL, Dose: 0, 0.4, 2, 10 PPM IN DIET FOR 130 WK (STUDY DURATION: 130 WK), Dose: 0, 0.4, 2, 10 PPM IN DIET FOR 130 WK (STUDY DURATION: 130 WK)) “inactive; negative”.

As for `ClCc1ccccc1`, the carcinogen call is “active; positive” (Species: MOUSE, Strain/Sex: B6C3F1/FEMALE, Route: ORAL (GAVAGE), Dose: 0, 50, 100 MG/KG BW 3 X A WK FOR 2 YRS (TEST MATERIAL SOLVENT: CORN OIL), Dose: 0, 50, 100 MG/KG BW 3 X A WK FOR 2 YRS (TEST MATERIAL SOLVENT: CORN OIL), Tumor Site: Type of Lesion: FORESTOMACH: CARCINOMA AND PAPILLOMA, LUNG: ALVEOLAR-BRONCHIOLAR ADENOMA OR CARCINOMA (HIGH DOSE ONLY, P=0.053)); “active; positive” (Species: MOUSE, Strain/Sex: B6C3F1/MALE, Route: ORAL (GAVAGE), Dose: 0, 50, 100 MG/KG BW 3 X A WK FOR 2 YRS (TEST MATERIAL SOLVENT: CORN OIL), Dose: 0, 50, 100 MG/KG BW 3 X A WK FOR 2 YRS (TEST MATERIAL SOLVENT: CORN OIL), Tumor Site: Type of Lesion: FORESTOMACH: CARCINOMA AND PAPILLOMA, LIVER: CARCINOMA OR ADENOMA (LOWER DOSE ONLY), CIRCULATORY SYSTEM: HEMANGIOMA OR H, Tumor Site: Type of Lesion: FORESTOMACH: CARCINOMA AND PAPILLOMA, LIVER: CARCINOMA OR ADENOMA (LOWER DOSE ONLY), CIRCULATORY SYSTEM: HEMANGIOMA OR H); “active; positive” (Species: RAT, Route: SUBCUTANEOUS, Tumor Site: Type of Lesion: INJECTION SITE); “active; positive” (Species: RAT, Strain/Sex: F344/FEMALE, Route: ORAL (GAVAGE), Dose: 0, 15, 30 MG/KG BW 3 X A WK FOR 2 YRS (TEST MATERIAL SOLVENT: CORN OIL), Dose: 0, 15, 30 MG/KG BW 3 X A WK FOR 2 YRS (TEST MATERIAL SOLVENT: CORN OIL), Tumor Site: Type of Lesion: THYROID: C-CELL NEOPLASMS); “inactive; negative” (Species: RAT, Strain/Sex: F344/MALE, Route: ORAL (GAVAGE), Dose: 0, 15, 30 MG/KG BW 3 X A WK FOR 2 YRS (TEST MATERIAL SOLVENT: CORN OIL), Dose: 0, 15, 30 MG/KG BW 3 X A WK FOR 2 YRS (TEST MATERIAL SOLVENT: CORN OIL)).

`N[C@H](CCC(=O)N[C@H](Cc1c[nH]c2ccccc12)C(=O)O)C(=O)O`: the carcinogen call was “inactive; negative” (Species: MOUSE, Strain/Sex: C57BL.CBA, Route: SC, Dose: 0.0145 AND 0.145 MG/KG 2X WK FOR 104 WK (STUDY DURATION: 104 WK)) and “inactive; negative” (Species: RAT, Strain/Sex: WISTAR, Route: SC, Dose: 0.0145 AND 0.145 MG/KG 2X WK FOR 104 WK (STUDY DURATION: 104 WK)).

Regarding `CN[C@@H](C)[C@H](O)c1ccccc1`, the carcinogen call by setting is: (Species: MOUSE, Strain/Sex: B6C3F1/FEMALE, Route: ORAL, Dose: 0, 125, 250 PPM IN DIET FOR 103 WK, Dose: 0, 125, 250 PPM IN DIET FOR 103 WK) “inactive; negative”; (Species: MOUSE, Strain/Sex: B6C3F1/MALE, Route: ORAL, Dose: 0, 125, 250 PPM IN DIET FOR 103 WK, Dose: 0, 125, 250 PPM IN DIET FOR 103 WK) “inactive; negative”; (Species: RAT, Strain/Sex: F344/FEMALE, Route: ORAL, Dose: 0, 125, 250 PPM IN DIET FOR 103 WK, Dose: 0, 125, 250 PPM IN DIET FOR 103 WK) “inactive; negative”; (Species: RAT, Strain/Sex: F344/MALE, Route: ORAL, Dose: 0, 125, 250 PPM IN DIET FOR 103 WK, Dose: 0, 125, 250 PPM IN DIET FOR 103 WK) “inactive; negative”.

With `COCCOC1=C(N2CC2)C(=O)C(OCCOC)=C(N2CC2)C1=O`, the carcinogen call (Species: MOUSE, Route: INTRAPERITONEAL, Tumor Site: Type of Lesion: LUNG) is “active; positive”.

In the case of `c1ccc2c(c1)ccc1c3ccccc3sc21`, the carcinogen call (Species: RAT, Strain/Sex: OSBORNE-MENDEL/FEMALE, Route: INTRAPULMONARY IMPLANT, Dose: 0, 1, 3, 6 MG IN BEESWAX AND TRIOCTANOIN IMPLANTED IN LUNG (STUDY DURATION: 141 WK), Dose: 0, 1, 3, 6 MG IN BEESWAX AND TRIOCTANOIN IMPLANTED IN LUNG (STUDY DURATION: 141 WK), Tumor Site: Type of Lesion: LUNG: CARCINOMA) was “active; positive”.

`CN(C)[C@@H]1C(=O)C(C(N)=O)=C(O)[C@@]2(O)C(=O)C3=C(O)c4c(O)cccc4[C@@](C)(O)[C@H]3[C@H](O)[C@@H]12`: the carcinogen call is “inactive; negative” (Species: MOUSE, Strain/Sex: B6C3F1/FEMALE, Route: ORAL, Dose: 0, 6300, 12500 PPM IN DIET FOR 103 WK (STUDY DURATION: 103 WK), Dose: 0, 6300, 12500 PPM IN DIET FOR 103 WK (STUDY DURATION: 103 WK)); “inactive; negative” (Species: MOUSE, Strain/Sex: B6C3F1/MALE, Route: ORAL, Dose: 0, 6300, 12500 PPM IN DIET FOR 103 WK (STUDY DURATION: 103 WK), Dose: 0, 6300, 12500 PPM IN DIET FOR 103 WK (STUDY DURATION: 103 WK)); “equivocal” (Species: RAT, Strain/Sex: F344/FEMALE, Route: ORAL, Dose: 0, 25000, 50000 PPM IN DIET FOR 103 WK (STUDY DURATION: 103 WK), Dose: 0, 25000, 50000 PPM IN DIET FOR 103 WK (STUDY DURATION: 103 WK), Tumor Site: Type of Lesion: PITUITARY GLAND: ADENOMA); “equivocal” (Species: RAT, Strain/Sex: F344/MALE, Route: ORAL, Dose: 0, 25000, 50000 PPM IN DIET FOR 103 WK (STUDY DURATION: 103 WK), Dose: 0, 25000, 50000 PPM IN DIET FOR 103 WK (STUDY DURATION: 103 WK), Tumor Site: Type of Lesion: ADRENAL GLAND: PHEOCHROMOCYTOMA).
